Results taken from PubChem BioAssay (NCI).
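These data come from cells grown in 96-well plates and exposed to compound for 48 hours at five concentrations. The concentration for 50% growth inhibition is given as GI50. At the TGI there is no net growth.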

Experiments:
Test in all cases: DTP human tumour cell line panel, 48 h
[1] = test system: KM20L2 colon
[2] = test system: DMS 114 small cell lung
[3] = test system: DMS 273 small cell lung
[4] = test system: LXFL 529 NSCLC
[5] = test system: MDA-MB-231 breast
[6] = test system: T-47D breast
[7] = test system: MDA-N
[8] = test system: RXF-631 renal
[9] = test system: NCI/ADR-RES ovarian

Row | SMILES | TGI [1] | TGI [2] | TGI [3] | TGI [4] | TGI [5] | TGI [6] | TGI [9] | other results
1 | COC(=O)[C@@]12C3=NO[C@]1(C(=O)OC)C(O[Si](C)(C)C(C)(C)C)C1OC(C)(C)OC1[C@@H]2[C@@H](OCc1ccccc1)CC3 (stereo partly specified) | > 100 µM | > 100 µM | > 100 µM | > 100 µM |  |  |  | 
2 | COc1ccc2c(c1)CC[C@@H]1C2CC[C@]2(C)C(=O)N(C)C(=O)CC12 (stereo partly specified) |  |  |  |  | > 100 µM | > 100 µM |  | TGI [7]: > 100 µM
3 | Nc1ccc(C(=O)O)c2[nH]c3ccccc3c(=O)c12 | > 100 µM | > 100 µM | > 100 µM | > 100 µM |  |  |  | 
4 | Cc1cc(C)c2c(c1C)CN1CN2Cc2c(C)c(C)cc(C)c21 |  | 44.1 µM | > 100 µM | > 100 µM |  |  |  | 
5 | Cc1ccc(NC(=O)CCC(=O)C2CC(=O)CCC2=O)cc1C (stereo unspecified) | > 100 µM | > 100 µM | > 100 µM | > 100 µM |  |  |  | TGI [8]: > 100 µM
6 | COc1ccc(Br)c(CCCCC(=O)O)c1 | > 100 µM | > 100 µM | > 100 µM | > 100 µM |  |  |  | 
7 | COC(=O)C1(c2ccc(OC)cc2)NC(c2ccccc2)C2C(=O)N(c3ccc(OC)cc3)C(=O)C21 (stereo unspecified) | > 100 µM | > 100 µM | > 100 µM | > 100 µM |  |  |  | TGI [8]: > 100 µM
8 | CCOC(=O)C12CN(C34CC5CC(CC(C5)C3)C4)CC(C(=O)OCC)(C1=O)C(c1ccccc1)OC2c1ccccc1 (stereo unspecified) | > 100 µM | > 100 µM | > 100 µM | > 100 µM |  |  |  | 
9 | C=C1C(=O)C23C(O)C1CCC2C12CO[C@]3(O)[C@@H](O)C1C(C)(C)CCC2O (stereo partly specified) | 30.5 µM | 20.7 µM | 28.1 µM | 6.03 µM |  |  |  | TGI [8]: 34.5 µM
10 | O=C1NCC2=C1CCC1c3ccccc3CCN21 (stereo unspecified) | > 100 µM | > 100 µM | > 100 µM | > 100 µM |  |  |  | 
11 | COc1ccc(C(=O)Nc2ccccc2)cc1[N+](=O)[O-] | > 100 µM | > 100 µM | > 100 µM | > 100 µM |  |  |  | TGI [8]: > 100 µM
12 | CC(=O)/C(=C\n1c(=S)[nH]c2ccc([N+](=O)[O-])cc21)C(=O)Nc1ccccc1C |  |  |  |  | > 100 µM | > 100 µM | > 100 µM | TGI [7]: > 100 µM
13 | COc1cc(C2c3cc4c(cc3[C@@H](OCCN)[C@H]3COC(=O)C23)OCO4)cc(OC)c1O (stereo partly specified) | 2.79 µM | 0.162 µM |  | 7.75 µM |  |  |  | 
14 | Fc1cccc(C=NC23CC4CC(CC(C4)C2)C3)c1 | > 100 µM | > 100 µM | > 100 µM | > 100 µM |  |  |  | 
15 | NC(=NCc1ccccc1)N/N=C\c1ccnc2ccccc12 |  |  |  |  | 28.2 µM | 5.87 µM | 35.6 µM | TGI [7]: 26.6 µM
16 | COc1cc(-c2[nH]ncc2CCCC(=O)Nc2ccccc2[N+](=O)[O-])ccc1O |  | 93.2 µM | > 100 µM | > 100 µM |  |  |  | 
17 | Cn1c(=O)c2c(nc3n2C(CCl)CO3)n(C)c1=O (stereo unspecified) |  | > 100 µM | > 100 µM |  |  |  |  | TGI [8]: > 100 µM
18 | CC1=C(C(=O)Nc2cc(F)c(F)cc2F)C(c2cccc([N+](=O)[O-])c2)C(C(=O)Nc2ccccc2C(F)(F)F)=C(C)N1 (stereo unspecified) | 78.4 µM | 57 µM |  | 53.1 µM |  |  |  | TGI [8]: 49.3 µM
19 | CNS(=O)(=O)NN(C)S(=O)(=O)c1ccc(C)cc1 | > 100 µM | > 100 µM |  |  |  |  |  | 
20 | COC(=O)C1(C)CCc2c(ccc3ccccc23)C1=O (stereo unspecified) |  |  |  |  | > 100 µM | 72.8 µM | > 100 µM | TGI [7]: 76.5 µM
21 | COc1ccc(N=C/C=C/C(=C/COC(C)=O)OC(C)=O)cc1 |  |  |  |  | 65.3 µM | > 100 µM | > 100 µM | TGI [7]: 43.8 µM
22 | CCOC(=O)c1c(-c2ccccc2)[nH]c2ccccc2c1=O |  |  |  |  |  | > 100 µM | > 100 µM | TGI [7]: > 100 µM
23 | C#CCSc1nnnn1-c1ccc(Br)c(C)c1 |  |  |  |  | > 100 µM | > 100 µM | 72.7 µM | GI50 [9]: 17.4 µM; GI50 [5]: 35.8 µM; GI50 [6]: 21 µM
24 | C=C(CNCCc1ccc(O)cc1)[C@@H]1CC[C@]2(CO)CC[C@]3(C)[C@H](CC[C@@H]4[C@@]5(C)CCC(NCCO)C(C)(C)[C@@H]5CC[C@]43C)[C@@H]12 (stereo partly specified) |  |  |  |  | 2.74 µM | 3.96 µM | 4.88 µM | GI50 [9]: 2.09 µM; GI50 [5]: 1.33 µM; GI50 [6]: 1.79 µM
25 | COC(=O)C12C3C=CC(O3)C1C1C=CC2O1 (stereo unspecified) | > 100 µM |  | > 100 µM | > 100 µM |  |  |  | 
26 | c1ccc(CNc2nc(Nc3ccc(-c4nc5ccccc5[nH]4)cc3)c3cn[nH]c3n2)cc1 |  |  |  |  | 4.97 µM | 5.46 µM | 5.99 µM | GI50 [9]: 2.22 µM; GI50 [5]: 2.11 µM; GI50 [6]: 1.63 µM
27 | COc1ccc(Nc2nc3c(N)cc(C(F)(F)F)cc3nc2-c2ccccc2)cc1 | > 100 µM | > 100 µM | > 100 µM | > 100 µM |  |  |  | TGI [8]: > 100 µM
28 | CC1(C)CCC(CN2CCN(c3ccc(C(=O)NS(=O)(=O)c4ccc(NCC5CCOCC5)c([N+](=O)[O-])c4)c(Oc4cnc5[nH]ccc5c4)c3)CC2)=C(c2ccc(Cl)cc2)C1 |  |  |  |  | 4 µM | 18.9 µM | 27.3 µM | GI50 [9]: 5 µM; GI50 [5]: 1.78 µM; GI50 [6]: 3.25 µM
